From patent US20120157377A1, “METHODS TO ENHANCE NIGHT VISION AND TREATMENT OF NIGHT BLINDNESS” (priority 2012, published 2012)

How the values were obtained:
[1] = cited from earlier work
mice = settings: cited from earlier work
humans = experiment: Case reports: ophthalmic drops instilled into the conjunctival sac for night vision and night blindness; settings: micro doses in the ophthalmic drops

| SMILES | red fluorescence (>640 nm) of eyes versus control mice ([1]; intravenously injected chlorin e6) | fluorescence emission of removed eyes (uptake by the retina) ([1]; mice, 2.00 mg per kilogram body weight intravenously, one hour after administration) | persistence of deposits in the photoreceptors ([1]; mice, intravenous chlorin e6) | neural impulse generation in the retina in response to amber light (mice; in the presence of chlorin e6) | neural impulse generation in the retina in response to red and blue light (mice; in the presence of chlorin e6) | electroretinographic amplitudes in response to red and blue light (mice; mice administered chlorin e6) | hallucinogenic or other ill effect (humans) |
| --- | --- | --- | --- | --- | --- | --- | --- |
| C=Cc1c(C)c2cc3nc(c(CC(=O)O)c4[nH]c(cc5nc(cc1[nH]2)C(C)=C5CC)c(C)c4C(=O)O)[C@@H](CCC(=O)O)[C@@H]3C (relative stereo) [chlorin e6] | three times more red fluorescence | strong emission band of red florescence centered at 675 nm | remained in the photoreceptors for three hours post administration | not amber light | almost two-fold increase | two-fold greater | – |
| CNC1(c2ccccc2Cl)CCCCC1=O (stereo not shown) [ketamine] | – | – | – | – | – | – | no hallucinogenic or other ill effect |
